Test results as given in PubChem BioAssay (NCI).
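Cells were grown in 96-well plates and exposed to each compound for 48 hours at five concentrations; endpoints were interpolated linearly between bracketing concentrations, or set to the highest concentration if not reached. TGI denotes the concentration required for complete inhibition of growth.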

What was measured:
Test in all cases: inhibition of tumour cell growth, NCI panel, 48 h
RPMI-8226 leukemia = tested on: RPMI-8226 leukemia
MDA-MB-231 breast = tested on: MDA-MB-231 breast
MDA-N = tested on: MDA-N
U251 CNS = tested on: U251 CNS
M14 melanoma = tested on: M14 melanoma
T-47D breast = tested on: T-47D breast
HOP-62 NSCLC = tested on: HOP-62 NSCLC
OVCAR-3 ovarian = tested on: OVCAR-3 ovarian
CCRF-CEM leukemia = tested on: CCRF-CEM leukemia
HS 578T breast = tested on: HS 578T breast

SMILES	TGI (RPMI-8226 leukemia) [µM]	TGI (MDA-MB-231 breast) [µM]	TGI (MDA-N) [µM]	TGI (U251 CNS) [µM]	TGI (M14 melanoma) [µM]	TGI (T-47D breast) [µM]	TGI (HOP-62 NSCLC) [µM]	TGI (OVCAR-3 ovarian) [µM]	TGI (CCRF-CEM leukemia) [µM]	TGI (HS 578T breast) [µM]
CC(=O)Nc1ccc(Nc2cc(=O)n(C)c(=O)[nH]2)cc1	> 100	> 100	> 100	> 100	> 100	> 100	> 100	> 100	> 100	> 100
COc1cc2c(cc1OC)C1Cc3ccccc3CCN1CC2 (stereo not given)	> 100	> 100	> 100	> 100	> 100	> 100	> 100	> 100	> 100	> 100
Cc1nc(-c2ccccc2)c(C)n2c1nc1ccccc12	40.6	> 100	> 100	> 100	46	45.3	> 100	54.8	> 100	> 100
O=C(O)c1cccc(S(=O)(=O)NN2C(=O)CSC2c2ccccc2)c1 (stereo not given)	> 100	> 100	> 100	> 100	> 100	> 100	> 100	> 100	> 100	> 100
CCOc1cc(/C=N\N(C)C)cc(/C=N\N(C)C)c1O	> 100	> 100	> 100	89.9	> 100	> 100	> 100	> 100	> 100	> 100
CCOC(=O)C1(Cc2ccccc2)Cc2cc3c(cc2C1)CCC3	51.7	> 100	> 100	> 100	> 100	> 100	> 100	> 100	36.6	> 100
Oc1c(C2=NNC(c3cccs3)C2)ccc2ccccc12 (stereo not given)	77.9	91.2	35.3	69.5	32.5	> 100	99.4	43.5	37.4	74.5
CCC1(OC(=O)CN2CCN(CCO)CC2)C(=O)OCc2c1cc1n(c2=O)Cc2cc3ccccc3nc2-1 (stereo not given)	5.28	65.7	13.1	2.41	1.92	4.92	4.55	3.81	0.451	> 85.8
N#Cc1cccc(C2ON=C(c3ccc([N+](=O)[O-])cc3)N2C23CC4CC(CC(C4)C2)C3)c1 (stereo not given)	> 100	> 100	> 100	> 100	> 100	> 100	> 100	> 100	> 100	> 100
O=C(O)CCC(NC(=O)c1ccc(Nc2nc3ccccc3nc2C(=O)O)cc1)C(=O)O (stereo not given)	> 100	> 100	> 100	> 100	> 100	> 100	> 100	> 100	> 100	> 100
O=C(c1ccc(Cl)cc1Cl)N(Cc1cccnc1)C(=S)N(Cc1cccnc1)C(=O)c1ccc(Cl)cc1Cl	> 100	6.53	6.76	9.88	9.26	45.7	7.12	10.1	> 100	66.4
